Legend:
TREU 667 procyclic forms [1] = test: Anti-p-tyr immunoblot (Western) analysis of protein tyrosine phosphorylation after orthovanadate treatment; type: cell-based, T. brucei; set-up: level of protein tyrosine phosphorylation of specific substrates, particularly ptp40 and ptp42: dose or concentration left out as unconfirmed
Method: In the drawings: • FIGURE 1 illustrates the specificity of reactivity with anti-p-tyr antibodies. Lysate from the monomorphic trypanosome strain EATRO 164, clone IHRI 1, procyclic forms (10⁷ cells) was loaded per lane on a 10% sodium dodecyl sulfate polyacrylamide gel electrophoresis (SDS-PAGE) gel. Proteins were transferred to polyvinylidene difluoride membranes, incubated with anti-p-tyr antibodies, and followed by treatment with ¹²⁵I-protein A. Panel A: 0.25 µg ml⁻¹ anti-p-tyr antibodies. Panel B: 1 µg ml⁻¹ anti-p-tyr antibodies, plus 40 mM phenyl phosphate. Molecular weight markers are indicated. Lanes 1 and 2 differ only in the concentration of orthovanadate used during cell processing. • FIGURE 2 illustrates immunoprecipitation and phosphoamino acid analysis. Panel 2A: Western analysis of anti-p-tyr immunoprecipitates. Immunoreactive proteins were enriched by immunoprecipitation as described herein. Each lane was loaded with material corresponding to the same amount of cell lysate. Lanes: 1) total cell lysate; 2) lysate cleared of proteins reactive with anti-p-tyr; 3) eluate from anti-p-tyr immunoprecipitation. Panel 2B: Two-dimensional phosphoamino acid analysis. Procyclic forms were metabolically labelled with [³²P] orthophosphate, and proteins reactive with the anti-p-tyr antiserum were enriched by immunoprecipitation as described above. The proteins were hydrolyzed and phosphoamino acids separated by two-dimensional electrophoresis. […] Lysate of 10⁷ cells from each stage of the life cycle was loaded. TREU 667 is a pleiomorphic strain; EATRO 164 is a monomorphic strain. Independent samples produced by difluoromethylornithine (DFMO) treatment are indicated (D). PF 100% mid-log phase procyclic culture forms. SL Slender bloodforms (EATRO, 100% slender; TREU 75% slender). INT Intermediate bloodforms (approximately 20% slender, 60% intermediate, 20% late intermediate-stumpy). ST Stumpy bloodforms (>60% late intermediate-stumpy, the remainder intermediate). • FIGURE 4 illustrates the solubility analysis of immunoreactive proteins. TREU 667 procyclic form cells were lysed in buffer containing various detergents as indicated. Lanes: 1) 1% NP-40 + 0.25% deoxycholate; 2) 1% NP-40; 3) 2% SDS; 4) freeze/thaw lysis. Solubilized proteins (S), insoluble pellets (P), total lysate (T). • FIGURE 5 illustrates the effect of orthovanadate on cell growth. […] Growth of the parasites was monitored by measuring the optical density at 600 nm over ranges which were previously established to be linearly related to cell density. • FIGURE 6 illustrates the effect of orthovanadate on protein phosphorylation and tyrosine phosphorylation in TREU 667 procyclic forms. […] The cells were rinsed three times and an aliquot equivalent to 2.3 x 10⁵ cells was analyzed by SDS-PAGE and autoradiography. […]

T. brucei cells = test: Tyrosine phosphorylation with tyrosine kinase inhibitors in the presence of orthovanadate; type: cell-based; conditions: in the presence of the tyrosine phosphatase inhibitor orthovanadate
Source text: Many inhibitors of mammalian tyrosine kinase have been investigated by the present inventors to determine if tyrosine phosphorylation is reduced in the tested organisms.

[2] = test system: TREU 667 procyclic form cells; test: Effect of orthovanadate on cell growth (optical density at 600 nm); type: cell-based, T. brucei
Method: (§1) In the drawings: • FIGURE 1 illustrates the specificity of reactivity with anti-p-tyr antibodies. Lysate from the monomorphic trypanosome strain EATRO 164, clone IHRI 1, procyclic forms (10⁷ cells) was loaded per lane on a 10% sodium dodecyl sulfate polyacrylamide gel electrophoresis (SDS-PAGE) gel. Proteins were transferred to polyvinylidene difluoride membranes, incubated with anti-p-tyr antibodies, and followed by treatment with ¹²⁵I-protein A. Panel A: 0.25 µg ml⁻¹ anti-p-tyr antibodies. Panel B: 1 µg ml⁻¹ anti-p-tyr antibodies, plus 40 mM phenyl phosphate. Molecular weight markers are indicated. Lanes 1 and 2 differ only in the concentration of orthovanadate used during cell processing. • FIGURE 2 illustrates immunoprecipitation and phosphoamino acid analysis. Panel 2A: Western analysis of anti-p-tyr immunoprecipitates. Immunoreactive proteins were enriched by immunoprecipitation as described herein. […] Growth of the parasites was monitored by measuring the optical density at 600 nm over ranges which were previously established to be linearly related to cell density. • FIGURE 6 illustrates the effect of orthovanadate on protein phosphorylation and tyrosine phosphorylation in TREU 667 procyclic forms. […] The cells were rinsed three times and an aliquot equivalent to 2.3 x 10⁵ cells was analyzed by SDS-PAGE and autoradiography. […]

TREU 667 procyclic forms [3] = test: SDS-PAGE analysis of proteins of cells metabolically labelled with [32P]-orthophosphate; type: cell-based, T. brucei; conditions: 1.5 µM orthovanadate, started one hour before overnight labelling (FIGURE 6C)
Method: as §1

C[C@@H]1C[C@@H]([C@H](O)CC2CC(=O)NC(=O)C2)C(=O)[C@@H](C)C1 [cycloheximide]
effect of cycloheximide on increased tyrosine phosphorylation mediated by orthovanadate (TREU 667 procyclic forms [1]): does not prevent increased tyrosine phosphorylation

O=c1c(-c2ccc(O)cc2)coc2cc(O)cc(O)c12 [genestin]
tyrosine phosphorylation in T. brucei cells (T. brucei cells): decreased tyrosine phosphorylation

[O]=[V]([O-])([O-])[O-] [orthovanadate]
growth and motility of procyclic forms ([2]; 1.5 µM orthovanadate): nonmotile but continued to divide, albeit more slowly | toxicity to trypanosomes ([2]; procyclic forms, concentrations approaching those used to cause phenotypic transformation of mammalian cells (30 µM)): toxic | time until tyrosine phosphorylation was maximal (TREU 667 procyclic forms [1]; 15 µM orthovanadate (FIGURE 6B)): ≤ 2 h | level of protein tyrosine phosphorylation of specific substrates, particularly ptp40 and ptp42 (TREU 667 procyclic forms [1]; after 6 hours in orthovanadate (FIGURE 6A)): increased dramatically | time until tyrosine phosphorylation returned to near control levels (TREU 667 procyclic forms [1]; after the drug was removed (cells grown in orthovanadate, rinsed free of drug)): ≤ 24 h | pattern of 32P-labelled proteins observed after SDS-PAGE (TREU 667 procyclic forms [3]): the same in control and treated cells
